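How tested: cells in 96-well plates exposed to compound for 48 hours at five concentrations. The concentration for 50% growth inhibition is given as GI50. Definition used: TGI = concentration required for complete inhibition of growth.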

Some test systems named below: HCT-15 colon; HOP-62 NSCLC; HOP-92 NSCLC; K-562 leukemia; OVCAR-4 ovarian; SK-MEL-2 melanoma; SN12C renal; U251 CNS; CCRF-CEM leukemia; CAKI-1 renal.
Holding throughout (test): DTP human tumour cell line panel, 48 h

One may read the GI50 as the concentration that inhibits growth by half. A word on the TGI: it is the concentration at which net growth stops. The low end stands for greater sensitivity of the cells, the high end for lower sensitivity of the cells. As to `O=C(NCCNCCO)c1ccc2c(c1)oc1cc3ccccc3c(=O)n12`, the GI50 in the assay on HCT-15 colon was 38.4 µM; with HOP-62 NSCLC it was above 50 µM; with HOP-92 NSCLC it was 37.6 µM; in the assay on K-562 leukemia, 46.7 µM; with OVCAR-4 ovarian, above 50 µM; in the assay on SK-MEL-2 melanoma it was 12.8 µM. Also, the GI50 in the assay on SN12C renal was 29.1 µM; with U251 CNS it was 14.7 µM. For the same compound, the concentration for total growth inhibition (TGI) in the assay on HCT-15 colon is above 50 µM; in the assay on HOP-62 NSCLC it was above 50 µM; in the assay with HOP-92 NSCLC, above 50 µM; in the assay with K-562 leukemia it was above 50 µM; in the assay with OVCAR-4 ovarian, above 50 µM; with SK-MEL-2 melanoma, 44.7 µM. Besides, the results for the TGI with SN12C renal and with U251 CNS were above 50 µM and 42.6 µM, respectively.

With `CCn1cc(C(=O)O)c(=O)c2cc(F)c(N3CCN(S(=O)(=O)c4cccc5ccccc45)CC3)cc21`, the GI50 is 3.67 µM in the assay with CCRF-CEM leukemia; 3.15 µM with HCT-15 colon; 4.6 µM in the assay on HOP-62 NSCLC; 1.25 µM with HOP-92 NSCLC; 3.93 µM in the assay with K-562 leukemia; 2.6 µM with OVCAR-4 ovarian. The GI50 is 3.55 µM with SK-MEL-2 melanoma, 2.59 µM with SN12C renal and 3.29 µM in the assay with U251 CNS. In addition, the TGI is above 100 µM in the assay with CCRF-CEM leukemia; above 100 µM with HCT-15 colon; 39.2 µM with HOP-62 NSCLC; 5.43 µM in the assay on HOP-92 NSCLC; above 100 µM in the assay with K-562 leukemia; above 100 µM in the assay with OVCAR-4 ovarian. Besides, the results for the TGI with SK-MEL-2 melanoma, in the assay with SN12C renal and in the assay with U251 CNS were 8.72 µM, above 100 µM and above 100 µM, respectively.

For `COc1cc(Nc2cnc3ccc(C(F)(F)F)cc3n2)cc(OC)c1OC`, the TGI in the assay on CCRF-CEM leukemia, in the assay on HCT-15 colon, in the assay on HOP-62 NSCLC, in the assay on HOP-92 NSCLC, in the assay on SK-MEL-2 melanoma and with SN12C renal was above 100 µM throughout. In the assay on U251 CNS, this compound came in with a TGI above 100 µM.

`CNCc1cccc2c1OCCOCCOCCN(C)S(=O)(=O)c1ccc(cc1)-c1cnc(N)c(n1)C(=O)N2`: the GI50 with CAKI-1 renal is 0.98 µM; in the assay on CCRF-CEM leukemia, 0.549 µM; in the assay on HCT-15 colon, 1.77 µM; in the assay with HOP-62 NSCLC, 1.77 µM; in the assay on K-562 leukemia it was 0.622 µM; in the assay with SK-MEL-2 melanoma, 1.42 µM. Also, the GI50 in the assay on SN12C renal is 1.48 µM; with U251 CNS it was 1.53 µM. Besides, the TGI in the assay on CAKI-1 renal came out at 17.9 µM; in the assay with CCRF-CEM leukemia, 3.95 µM; in the assay on HCT-15 colon it was 7.78 µM; in the assay on HOP-62 NSCLC, 4.04 µM; in the assay with K-562 leukemia it was 10.3 µM; in the assay on SK-MEL-2 melanoma, 4.27 µM. For the same compound, the TGI amounted to 3.41 µM in the assay on SN12C renal and 3.37 µM in the assay on U251 CNS.

For the compound `COc1cc2c(cc1Nc1nc(N3CCc4ccccc43)c3cc[nH]c3n1)N(C(=O)CN(C)C)CC2`, the GI50 is 11 µM with CAKI-1 renal; 0.611 µM in the assay on CCRF-CEM leukemia; 1.25 µM in the assay on HCT-15 colon; 4.62 µM with HOP-62 NSCLC; 0.478 µM in the assay with K-562 leukemia; 2.84 µM in the assay on OVCAR-4 ovarian. The values for the GI50 in the assay with SK-MEL-2 melanoma, in the assay on SN12C renal and in the assay with U251 CNS were 6.01 µM, 3.05 µM and 4.67 µM, respectively. For the same compound, the TGI with CAKI-1 renal is 16.3 µM; in the assay on CCRF-CEM leukemia, 1.49 µM; with HCT-15 colon, 2.81 µM; in the assay on HOP-62 NSCLC, 9.46 µM; with K-562 leukemia, 1.2 µM; with OVCAR-4 ovarian, 9.04 µM. Also, the results for the TGI in the assay with SK-MEL-2 melanoma, in the assay with SN12C renal and in the assay with U251 CNS were 12.3 µM, 7.47 µM and 9.83 µM, respectively.

In the case of `FC(F)(F)Oc1cccc(-c2cc(NCCCCCCNc3cc(-c4cccc(OC(F)(F)F)c4)nc4ccc(N5CCCC5)cc34)c3cc(N4CCCC4)ccc3n2)c1`, the GI50 in the assay with CAKI-1 renal was 1.65 µM; with HCT-15 colon, 1.84 µM; in the assay with HOP-62 NSCLC it was 2.04 µM; in the assay with HOP-92 NSCLC, 1.54 µM; in the assay on OVCAR-4 ovarian it was 1.7 µM; in the assay on SK-MEL-2 melanoma it was 1.96 µM. Moreover, the GI50 in the assay with SN12C renal is 1.64 µM; in the assay with U251 CNS, 2.11 µM. The TGI with CAKI-1 renal came out at 3.01 µM; in the assay on HCT-15 colon it was 3.69 µM; in the assay with HOP-62 NSCLC, 4.44 µM; with HOP-92 NSCLC, 3.18 µM; with OVCAR-4 ovarian it was 3.19 µM; in the assay on SK-MEL-2 melanoma, 3.63 µM. For the same compound, the TGI in the assay on SN12C renal came out at 3.06 µM; with U251 CNS, 4.62 µM.

For the compound `COc1nc2c(c(O)c(C)c(=O)n2OC2OCC(OC(C)=O)C(OC(C)=O)C2OC(C)=O)c(=O)n1C` (stereo not drawn), the TGI in the assay with CCRF-CEM leukemia, in the assay on HCT-15 colon, in the assay on HOP-62 NSCLC, in the assay on K-562 leukemia, in the assay with OVCAR-4 ovarian and in the assay with SK-MEL-2 melanoma was above 100 µM each time. Also, the TGI in the assay on SN12C renal and in the assay with U251 CNS was above 100 µM each time.

As to `O=C(Nc1cccc(-n2cc(-c3ccncc3)c(-c3cc(O)cc(Cl)c3)n2)c1)c1ccc(N2CCOCC2)c(C(F)(F)F)c1`, the GI50 is 1.1 µM with CAKI-1 renal; 0.543 µM with CCRF-CEM leukemia; 0.559 µM in the assay on HCT-15 colon; 3.59 µM with HOP-62 NSCLC; 0.564 µM in the assay on K-562 leukemia; above 100 µM in the assay on OVCAR-4 ovarian. For the same compound, the GI50 with SK-MEL-2 melanoma was 2.34 µM; in the assay with SN12C renal it was 6.37 µM; in the assay with U251 CNS, 1.4 µM. Also, the TGI in the assay on CAKI-1 renal is 6 µM; in the assay on CCRF-CEM leukemia it was above 100 µM; in the assay with HCT-15 colon, 11.3 µM; in the assay on HOP-62 NSCLC it was 58.2 µM; with K-562 leukemia, 4.88 µM; with OVCAR-4 ovarian, above 100 µM. Moreover, the TGI in the assay with SK-MEL-2 melanoma was 13.2 µM; in the assay with SN12C renal, above 100 µM; with U251 CNS, 6.3 µM.

`CCCCCCCCCCCC[N+]1(CCCCCCCCCCCC)CCCC(C)C1` (stereo not drawn) showed a TGI in the assay with CAKI-1 renal of 1.92 µM. In the assay on U251 CNS, the GI50 is 0.327 µM and the total growth inhibition concentration (TGI) was 1.29 µM.

`O=[N+]([O-])c1ccc(Cl)c2c([N+](=O)[O-])cccc12`: the TGI with CCRF-CEM leukemia, in the assay with HCT-15 colon, with HOP-62 NSCLC, in the assay with HOP-92 NSCLC, in the assay with K-562 leukemia and with OVCAR-4 ovarian was above 10 µM each time. The TGI with SK-MEL-2 melanoma and in the assay with SN12C renal was above 10 µM each time.
